Reference: article PMC9541843, “N‐terminal alterations turn the gut hormone GLP‐2 into an antagonist with gradual loss of GLP‐2 receptor selectivity towards more GLP‐1 receptor interaction” (British Journal of Pharmacology, 2022)
Peptide text beside a SMILES is read from it. * marks the point of attachment. C16 diacid = O=C(O)CCCCCCCCCCCCCCC(=O)*

What was measured:
human GLP‐2R [1] = target: T1, human GLP‐2R (Homo sapiens, UniProt O95838); assay: Schild plot analysis of cAMP activation curve of GLP‐2; format: cell-based; design: host or cells: COS-7 (transient, calcium phosphate); conditions: COS‐7 cells, n = 5 in duplicate, read-out: Ki from Schild plot (pA2) (converted)
T1 sequence (O95838 1-553): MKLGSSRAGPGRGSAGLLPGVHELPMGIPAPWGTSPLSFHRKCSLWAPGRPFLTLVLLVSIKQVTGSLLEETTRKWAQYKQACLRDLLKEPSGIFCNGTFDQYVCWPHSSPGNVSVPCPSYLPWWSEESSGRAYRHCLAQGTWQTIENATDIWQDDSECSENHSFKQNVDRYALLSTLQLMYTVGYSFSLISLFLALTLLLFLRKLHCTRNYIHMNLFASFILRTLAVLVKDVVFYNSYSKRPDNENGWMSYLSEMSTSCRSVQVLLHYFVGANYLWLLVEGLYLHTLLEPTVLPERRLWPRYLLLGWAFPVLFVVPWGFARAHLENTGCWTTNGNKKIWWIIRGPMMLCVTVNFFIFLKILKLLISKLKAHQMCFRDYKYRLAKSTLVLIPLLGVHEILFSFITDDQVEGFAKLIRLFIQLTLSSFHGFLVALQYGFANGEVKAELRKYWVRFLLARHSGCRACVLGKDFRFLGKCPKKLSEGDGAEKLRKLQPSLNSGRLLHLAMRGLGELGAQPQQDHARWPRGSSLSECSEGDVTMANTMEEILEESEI
Experimental: Statistical significance was accepted at P < 0.05.
We used a Schild plot approach, where we examined their ability to right‐shift the cAMP activation curve of native GLP‐2 (Figure 4a–d). For GLP‐2(2‐33), GLP‐(3‐33) and GLP‐2(4‐33), all having intrinsic activity, the Schild plot analysis was based on an equieffective DR (the concentrations at 60% of Emax). For GLP‐2(3‐33)[D3A], with no intrinsic activity, the Schild plot analysis was conducted based on the shift in the EC50 values for GLP‐2 with and without GLP‐2(3‐33)[D3A] as previously described (Sparre‐Ulrich et al., [2017]).

human GLP‐2R [2] = target: T1, human GLP‐2R; assay: cAMP accumulation, inhibition of GLP‐2‐induced activation
human GLP‐1R [3] = target: T2, human GLP‐1R (Homo sapiens, UniProt P43220); assay: cAMP accumulation, inhibition of GLP‐1‐mediated response (selectivity); conditions: for inhibition at 1 µM: COS-7, read-out: Inhibition of GLP‐1‐mediated cAMP response at the human GLP‐1R
human GLP‐2R [4] = target: T1, human GLP‐2R; assay: cAMP accumulation, agonism (HitHunter cAMP assay); conditions: SEM
human GLP‐2R [5] = target: T1, human GLP‐2R; assay: cell-based; conditions: SEM
Experimental: After incubation, the cells were washed twice in 400 μl per well ice‐cold binding buffer and lysed using 500 μl per well of 200 mM NaOH with 1% SDS for 30 min. The samples were counted using the Wizard Gamma Counter (PerkinElmer, Waltham, MA).

human GLP‐1R [6] = target: T2, human GLP‐1R; assay: cAMP accumulation, agonism (selectivity)

T2 sequence (P43220 24-463): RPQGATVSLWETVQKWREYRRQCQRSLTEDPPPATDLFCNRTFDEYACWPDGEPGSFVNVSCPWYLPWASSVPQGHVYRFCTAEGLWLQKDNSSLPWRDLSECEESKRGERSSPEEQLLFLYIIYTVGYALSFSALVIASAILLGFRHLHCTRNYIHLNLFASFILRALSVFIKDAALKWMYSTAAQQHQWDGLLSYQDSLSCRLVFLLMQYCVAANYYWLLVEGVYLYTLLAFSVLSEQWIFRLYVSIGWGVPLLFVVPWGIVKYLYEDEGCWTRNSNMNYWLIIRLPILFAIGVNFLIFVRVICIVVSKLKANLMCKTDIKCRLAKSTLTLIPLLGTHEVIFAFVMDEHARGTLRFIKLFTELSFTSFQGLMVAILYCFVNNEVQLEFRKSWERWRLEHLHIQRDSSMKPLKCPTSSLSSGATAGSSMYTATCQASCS

Compound	Ki (human GLP‐2R [1]) [nM]	IC50 (human GLP‐2R [2]) [nM]	inhibition at 1 µM (human GLP‐1R [3]) [%]	Emax (human GLP‐2R [4]; COS-7, read-out: cAMP activation Emax ± SEM) [%]	EC50 (human GLP‐2R [4]) [nM]	IC50 (human GLP‐2R [5]) [nM]	EC50 (human GLP‐1R [6]) [nM]	Efficacy of GLP‐1R activation (human GLP‐1R [6]; COS‐7 cells, human GLP‐1R, cAMP, 1 μM stimulation, n = 3 in duplicate) [%]	Inhibition of GLP‐2‐induced cAMP at the human GLP‐2R (human GLP‐2R [2]; at 1 μM peptide (highest tested concentration), COS‐7 cells) [%]	IC50 (human GLP‐1R [3]) [nM]
CC[C@H](C)[C@H](NC(=O)[C@H](Cc1ccccc1)NC(=O)[C@H](CC(=O)O)NC(=O)[C@H](CCCNC(=N)N)NC(=O)[C@H](C)NC(=O)[C@H](C)NC(=O)[C@H](CC(C)C)NC(=O)[C@H](CC(N)=O)NC(=O)[C@H](CC(=O)O)NC(=O)[C@H](CC(C)C)NC(=O)[C@@H](NC(=O)[C@@H](NC(=O)[C@H](CC(N)=O)NC(=O)[C@H](CCSC)NC(=O)[C@H](CCC(=O)O)NC(=O)[C@H](CC(=O)O)NC(=O)[C@H](CO)NC(=O)[C@H](Cc1ccccc1)NC(=O)[C@H](CO)NC(=O)CNC(=O)[C@H](CC(=O)O)NC(=O)[C@H](C)N)[C@@H](C)O)[C@@H](C)CC)C(=O)N[C@@H](CC(N)=O)C(=O)N[C@@H](Cc1c[nH]c2ccccc12)C(=O)N[C@@H](CC(C)C)C(=O)N[C@H](C(=O)N[C@@H](CCC(N)=O)C(=O)N[C@H](C(=O)N[C@@H](CCCCN)C(=O)N[C@H](C(=O)N[C@H](C(=O)N[C@@H](CC(=O)O)C(=O)O)[C@@H](C)O)[C@@H](C)CC)[C@@H](C)O)[C@@H](C)CC [GLP‐2(2‐33)] (H-ADGSFSDEMNTILDNLAARDFINWLIQTKITD-OH)	40	174	30 to 38	20 ± 3.2	7.94	7.94	–	–	–	–
CC[C@H](C)[C@H](NC(=O)[C@H](Cc1ccccc1)NC(=O)[C@H](CC(=O)O)NC(=O)[C@H](CCCNC(=N)N)NC(=O)[C@H](C)NC(=O)[C@H](C)NC(=O)[C@H](CC(C)C)NC(=O)[C@H](CC(N)=O)NC(=O)[C@H](CC(=O)O)NC(=O)[C@H](CC(C)C)NC(=O)[C@@H](NC(=O)[C@@H](NC(=O)[C@H](CC(N)=O)NC(=O)[C@H](CCSC)NC(=O)[C@H](CCC(=O)O)NC(=O)[C@H](CC(=O)O)NC(=O)[C@H](CO)NC(=O)[C@H](Cc1ccccc1)NC(=O)[C@H](CO)NC(=O)CNC(=O)CCCCCCCCCCCCCCC(=O)O)[C@@H](C)O)[C@@H](C)CC)C(=O)N[C@@H](CC(N)=O)C(=O)N[C@@H](Cc1c[nH]c2ccccc12)C(=O)N[C@@H](CC(C)C)C(=O)N[C@H](C(=O)N[C@@H](CCC(N)=O)C(=O)N[C@H](C(=O)N[C@@H](CCCCN)C(=O)N[C@H](C(=O)N[C@H](C(=O)N[C@@H](CC(=O)O)C(=O)O)[C@@H](C)O)[C@@H](C)CC)[C@@H](C)O)[C@@H](C)CC [GLP‐2(4‐33)(C16‐diacid/4)] ({C16 diacid}-GSFSDEMNTILDNLAARDFINWLIQTKITD-OH)	–	11.7	41	–	–	–	2.5	16	95	79
